Our source for the IC50 values is patent publication US20260176289A1, “SMALL MOLECULE INHIBITORS OF KRAS PROTEINS” (Merck Sharp & Dohme LLC, priority 2022, published 2026).

SMILES strings stand for the structures. Like-named read-outs stand apart in the source and are kept apart here.

For orientation: IC50 means the point on the concentration scale where inhibition reaches its midpoint.

The target in one assay is KRAS-WT (Homo sapiens, UniProt P01116). As to the kind of experiment: SOS-catalyzed nucleotide exchange assay (Procedure A, TR-FRET), KRAS-WT. Format: biochemical. As to conditions: nucleotide exchange, read-out: KRAS WT GNE IC50. An outline of the steps: (§1)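 RAS (G12C carries C51S/C80L/C118S) loaded with Bodipy-GDP, complexed with Tb-streptavidin; cpd 60 min RT; + SOS/3 mM GTP. G12C 3/40 nM, WT 1/40, NRAS 1.25/40 nM RAS/SOS, 60 min; G12V 1.25/160 nM, 90 min. Normalized to DMSO and saturating inhibitor; 4PL fit.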
Sequence of KRAS-WT (P01116 with tags, fused parts or gaps isoform P01116-2): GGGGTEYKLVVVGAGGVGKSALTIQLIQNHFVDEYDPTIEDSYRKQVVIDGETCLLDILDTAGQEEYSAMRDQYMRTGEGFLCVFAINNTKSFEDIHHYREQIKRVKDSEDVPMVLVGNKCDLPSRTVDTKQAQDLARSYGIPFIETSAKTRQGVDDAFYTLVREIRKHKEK

The test system of another assay is AsPC-1 cells. As to the kind of experiment: Cellular phospho-ERK assay, AsPC-1 cells (homozygous KRAS-G12D). As to conditions: Homo sapiens, ASPC1, 2 h, read-out: AsPC1 pERK IC50. Type of assay: cell-based. An outline of the steps:
(§2)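 Overnight-plated cells on collagen received test compound (up to 30 μM final, threefold steps, ten concentrations) for two hours. After lysis at room temperature, phosphorylated and total ERK were quantified together by Alpha SureFire, and IC50 is based on the phospho-to-total signal ratio.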

For the next assay, the target named is KRAS-G12V (Homo sapiens, UniProt P01116, G12V). As to the kind of experiment: SOS-catalyzed nucleotide exchange assay (Procedure A, TR-FRET), KRAS-G12V. The note with it: nucleotide exchange, read-out: KRAS G12V GNE IC50. Type of assay: biochemical. The procedure, abridged:
as §1
(In general: In TR-FRET formats the signal depends on donor and acceptor labels being close together.)

The target of a further assay is KRAS-G13D (Homo sapiens, UniProt P01116, G13D). As to the kind of experiment: SOS-catalyzed nucleotide exchange assay (Procedure A, TR-FRET), KRAS-G13D. Type of assay: biochemical. The note with it: nucleotide exchange, Procedure A; read-out: KRAS G13D GNE IC50. The text has this:
(§3) Procedure for SOS-Catalyzed Nucleotide Exchange Assay for KRAS-WT, G12C/D/V, G13D, HRAS, and NRAS (Procedure A)
(§4) Recombinant KRAS-G12C protein used in this assay has an additional triple mutation (C51S/C80L/C118S). Whereas KRAS-WT, G12D/V, G13D, HRAS and NRAS are in context of their WT protein sequence background. Specifically, the SOS-catalyzed nucleotide exchange assay utilizes a preformed TR-FRET complex containing a specific biotinylated RAS protein (KRAS-WT, G12C/V/D, G13D, HRAS, NRAS; described above) with Bodipy-GDP, and Terbium-streptavidin. Compounds are preincubated with this complex for 60 minutes. Subsequently, recombinant human SOS protein and unlabeled GTP are added to initiate the exchange reaction. Small molecule inhibitors stabilize the Bodipy-GDP complex whereas the untreated protein rapidly exchanges Bodipy-GDP for unlabeled GTP resulting in reduced TR-FRET signal.
(§5) To assemble the preformed TR-FRET complexes, each biotinylated RAS protein is diluted to 2 μM in an EDTA Buffer (20 mM HEPES pH 7.5, 50 mM sodium chloride, 10 mM EDTA, and 0.01% Tween) and incubated at room temperature for one hour. This mixture is then further diluted to 90 nM in an Assay Buffer (20 mM HEPES pH 7.5, 150 mM sodium chloride, 10 mM magnesium chloride, and 0.005% Tween) containing 15 nM of Terbium-Streptavidin (Invitrogen, catalog #PV3577) and 900 nM of Bodipy-GDP (Invitrogen, catalog #G22360) and incubated at room temperature for six hours. It should be noted that this preformed TR-FRET complex for each of the RAS protein were made ahead of time, aliquoted and stored at −80° C. until the day of the experiment.
(§6) Each test compound (10 mM stock in DMSO) is diluted in DMSO to make a final-10-point, 3-fold dilution and is acoustically dispensed into a 384-well assay plate (Corning, catalog #3820) using an Echo 550 (Labcyte). Each well of the assay plate receives 3 μL of a specific 3×RAS preformed TR-FRET complex and 3 μL of Assay Buffer and is incubated at room temperature for 60 minutes (preincubation time). Each well then receives 3 μL of 3×recombinant human SOS protein and GTP (Sigma, G8877) in Assay Buffer and is incubated at room temperature for 30 minutes (G13D), 60 minutes (KRAS WT/G12C/D, H/NRAS) or 90 minutes for G12V. The final reaction in each well of 9 μL consists of 3 mM GTP, specific Ras and SOS proteins in the following concentrations: KRAS-G12C/SOS=3 nM/40 nM, KRAS-WT and G12D/SOS=1 nM/40 nM, KRAS-G12V/SOS=1.25 nM/160 nM. KRAS-G13D/SOS=1.25 nM/0 nM, HRAS and NRAS=1.25 nM/40 nM.
(§7) The time-resolved fluorescence resonance energy transfer (TR-FRET) signal is measured on an Envision (PerkinElmer) plate reader: Excitation filter=340 nm; emission 1=495 nm; emission2=520 nm; dichroic mirror=D400/D505; delay time=[…]. The signal of each well is determined as the ratio of the emission at 520 nm to that at 495 nm. Percent effect of each well is determined after normalization to control wells containing DMSO (no effect) or a saturating concentration of inhibitor (max effect). The apparent effect as a function of compound concentration is fit to a four-parameter logistic equation.

Assay [1] has as its target KRAS-G12C (C51S/C80L/C118S) (Homo sapiens, UniProt P01116, C118S/C51S/C80L/G12C). As to the kind of experiment: SOS-catalyzed nucleotide exchange assay (Procedure A, TR-FRET), KRAS-G12C. Type of assay: biochemical. The note with it: nucleotide exchange, Procedure A; read-out: KRAS G12C GNE IC50.
Excerpt: as §3, §4, §5, §6, §7

Another assay addresses KRAS-G12D (Homo sapiens, UniProt P01116, G12D). The assay is described as follows: SOS-catalyzed nucleotide exchange assay (Procedure A, TR-FRET), KRAS-G12D. Type of assay: biochemical. The note with it: nucleotide exchange, read-out: KRAS G12D GNE IC50. The procedure, abridged: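 Signal ratio (520/495 nm, excitation 340 nm) reports Bodipy-GDP retention on biotinylated RAS after SOS-catalyzed exchange with 3 mM GTP. SOS was 40 nM, except 160 nM for G12V. Room-temperature exchange lasted 60 min (90 min for G12V), following a 60 min compound preincubation.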

A further assay deals with MKN-1 cells. The assay is described as follows: Cellular phospho-ERK assay, MKN-1 cells (amplified wild-type KRAS). As to conditions: Homo sapiens, 2 hours compound incubation, read-out: MKN1 pERK IC50. Format: cell-based. The procedure, abridged: as §2
In another assay the test system is SW620 cells. The assay is described as follows: Cellular phospho-ERK assay, SW620 cells (homozygous KRAS-G12V). Type of assay: cell-based. As to conditions: Homo sapiens, SW-620, 2 hours compound incubation, read-out: SW620 pERK IC50. An outline of the steps: as §2

Sequence of KRAS-G12C (C51S/C80L/C118S) (P01116 with tags, fused parts or gaps isoform P01116-2 G12C/C51S/C80L/C118S): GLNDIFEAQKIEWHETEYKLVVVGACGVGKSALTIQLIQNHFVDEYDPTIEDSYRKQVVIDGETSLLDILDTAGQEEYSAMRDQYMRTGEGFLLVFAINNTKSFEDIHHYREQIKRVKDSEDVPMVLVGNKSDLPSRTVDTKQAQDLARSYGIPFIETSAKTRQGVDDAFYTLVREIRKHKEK
Sequence of KRAS-G13D (P01116 with tags, fused parts or gaps isoform P01116-2 G13D): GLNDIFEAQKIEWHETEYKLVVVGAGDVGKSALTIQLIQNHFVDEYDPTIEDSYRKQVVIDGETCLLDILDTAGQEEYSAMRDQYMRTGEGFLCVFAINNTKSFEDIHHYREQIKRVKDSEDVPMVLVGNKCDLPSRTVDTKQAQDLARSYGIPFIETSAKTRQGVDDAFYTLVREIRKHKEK
Sequence of KRAS-G12V (P01116 with tags, fused parts or gaps isoform P01116-2 G12V): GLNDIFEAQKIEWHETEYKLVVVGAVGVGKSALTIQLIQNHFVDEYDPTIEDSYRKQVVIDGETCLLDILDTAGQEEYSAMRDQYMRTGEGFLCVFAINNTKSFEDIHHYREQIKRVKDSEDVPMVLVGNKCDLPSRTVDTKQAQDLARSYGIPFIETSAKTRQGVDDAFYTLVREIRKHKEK
Sequence of KRAS-G12D (P01116 with tags, fused parts or gaps isoform P01116-2 G12D): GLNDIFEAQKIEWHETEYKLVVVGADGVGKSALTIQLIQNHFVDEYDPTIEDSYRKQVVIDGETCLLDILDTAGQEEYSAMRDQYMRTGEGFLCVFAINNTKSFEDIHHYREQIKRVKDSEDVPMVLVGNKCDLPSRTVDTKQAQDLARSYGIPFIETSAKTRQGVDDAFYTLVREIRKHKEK

For the molecule `Cc1cc2[nH]ncc2c(-c2nccc3c2sc2nc(OC[C@@]45CCCN4C[C@H](F)C5)nc(NC4CNC(=O)C4)c23)c1C(F)(F)F` (stereo partly drawn) [Ex-192, 4-((2-(((2R,7aS)-2-fluoro-tetrahydro-1H-pyrrolizin-7a(5H)-yl)methoxy)-8-(6-methyl-5-(trifluorometh-yl)-1H-indazol-4-yl)pyrido [4′,3′:4,5]thieno[2,3-d]pyrimidin-4-yl)amino)-pyrrolidin-2-one], the IC50 on KRAS-WT amounted to 418 nM; in the assay with AsPC-1 cells (2 hours compound incubation) it was 30000 nM; at KRAS-G12V it was 192 nM; on KRAS-G13D, 409 nM; in assay [1], 121 nM; on KRAS-G12D it was 283 nM.

Turning to `C[C@@]1(O)COCCN(c2nc(OC[C@@]34CCCN3C[C@H](F)C4)nc3sc4c(-c5c(-c6ccco6)c(Cl)cc6[nH]ncc56)nccc4c23)C1` [Ex-148, (6S)-4-(8-(6-chloro-5-(furan-2-yl)-1H-indazol-4-yl)-2-(((2R,7aS)-2-fluoro-tetrahydro-1H-pyr-rolizin-7a(5H)-yl)-methoxy)pyrido [4′,3′:4,5]thieno[2,3-d]pyrimidin-4-yl)-6-methyl-1,4-oxaze-pan-6-ol], the IC50 stood at 27.6 nM on KRAS-WT; 91.4 nM with AsPC-1 cells (2 hours compound incubation); 9.35 nM at KRAS-G12V; 20.4 nM on KRAS-G13D; 112 nM in assay [1]; 6.61 nM on KRAS-G12D.

Turning to `Cc1cc2[nH]ncc2c(-c2nccn3c2cc2nc(OC[C@]4(CN(C)C)CC4(F)F)nc(N4CCOC[C@@](C)(O)C4)c23)c1C1CC1` [Ex-296, (S)-4-(9-(5-cyclopropyl-6-methyl-1H-indazol-4-yl)-2-(((R)-1-((dimethylamino)meth-yl)-2,2-difluorocyclopropyl)methoxy)pyrazino [1′,2′:1,5]pyrrolo[3,2-d]pyrimidin-4-yl)-6-methyl-1,4-oxazepan-6-ol], the IC50 on KRAS-WT amounted to 167 nM; with AsPC-1 cells (KRAS-G12D, 2 hours), 316 nM; on KRAS-G12V, 101 nM; on KRAS-G13D it was 80.1 nM; in assay [1], 43.9 nM; at KRAS-G12D it was 48.7 nM.

As for `Cc1nc2[nH]nc(C)c2c(-c2nccc3c4c(N5CCOC[C@@](C)(O)C5)nc(OC[C@@]56CCCN5C[C@H](F)C6)nc4n(C)c23)c1C(F)(F)F` [Ex-15, (6S)-4-(8-(3,6-dimethyl-5-(trifluoromethyl)-1H-pyrazolo[3,4-b]pyridin-4-yl)-2-(((2R,7aS)-2-fluorotetrahydro-1H-pyrrolizin-7a(5H)-yl)methoxy)-9-methyl-9H-pyrido[4′,3′:4,5]pyrrolo[2,3-d]pyrimidin-4-yl)-6-methyl-1,4-oxazepan-6-ol], the IC50 on KRAS-WT stood at 8020 nM; at KRAS-G12V, 4930 nM; at KRAS-G13D, 5380 nM; in assay [1], 1970 nM; on KRAS-G12D, 9040 nM.

On to `Cc1cc2[nH]ncc2c(-c2nccc3c2sc2nc(OC[C@@]45CCCN4C[C@H](F)C5)nc(N4CCOC[C@@](C)(O)C4)c23)c1-c1ccsc1` [Ex-139, (6S)-4-(2-(((2R, 7aS)-2-fluorotetra-hydro-1H-pyrrol-izin-7a(5H)-yl)meth-oxy)-8-(6-methyl-5-(thiophen-3-yl)-1H-indazol-4-yl)pyrido [4′,3′:4,5]thieno[2,3-d]pyrimidin-4-yl)-6-methyl-1,4-oxaze-pan-6-ol], for which the IC50 is 319 nM at KRAS-WT; 663 nM in the assay on AsPC-1 cells (2 hours compound incubation); 128 nM at KRAS-G12V; 377 nM on KRAS-G13D; 159 nM in assay [1]; 129 nM on KRAS-G12D.

As to `Cc1cc2[nH]ncc2c(-c2nccc3c2sc2nc(OC[C@@]45CCCN4C[C@H](F)C5)nc(N4CCOC[C@@](C)(O)C4)c23)c1C1=CCCC1` [Ex-140, (6S)-4-(8-(5-(cyclo-pent-1-en-1-yl)-6-methyl-1H-indazol-4-yl)-2-(((2R,7aS)-2-fluorotetrahydro-1H-pyrrolizin-7a(5H)-yl)methoxy)pyrido [4′,3′:4,5]thieno[2,3-d]pyrimidin-4-yl)-6-methyl-1,4-oxaze-pan-6-ol], the IC50 at KRAS-WT worked out at 184 nM; with AsPC-1 cells (2 hours compound incubation), 560 nM; on KRAS-G12V, 65.3 nM; on KRAS-G13D, 172 nM; in assay [1], 362 nM; on KRAS-G12D, 69.3 nM.

On to `CN(C)C[C@@]1(COc2nc(N3CCOC[C@@](C)(O)C3)c3c(n2)sc2c(-c4c(C5CC5)c(C(F)(F)F)cc5[nH]ncc45)nccc23)CC1(F)F` [Ex-206, (6S)-4-(8-(5-cyclo-propyl-6-(trifluoro-methyl)-1H-inda-zol-4-yl)-2-(((R)-1-((dimethylamino)-methyl)-2,2-difluorocycloprop-yl)methoxy)pyrido [4′,3′:4,5]thieno [2,3-d]pyrimidin-4-yl)-6-methyl-1,4-oxazepan-6-ol], for which the IC50 at KRAS-WT is 23.5 nM; in the assay on AsPC-1 cells (2 hours compound incubation), 24 nM; in the assay with MKN-1 cells, 22.9 nM; at KRAS-G12V, 22.2 nM; with SW620 cells it was 15.4 nM; in assay [1], 3.57 nM. Further, at KRAS-G12D, the IC50 is 7.07 nM.

In the case of `C[C@@]1(O)COCCN(c2nc(OC[C@@]34CCCN3C[C@H](F)C4)nc3sc4c(-c5ccc(F)c6sc(N)c(C#N)c56)nccc4c23)C1` [Ex-275, 2-amino-7-fluoro-4-(2-(((2R,7aS)-2-fluoro-tetrahydro-1H-pyrrolizin-7a(5H)-yl)methoxy)-4-((S)-6-hydroxy-6-methyl-1,4-oxazepan-4-yl)pyrido[4′,3′:4,5]thi-eno[2,3-d]pyrimidin-8-yl)benzo[b]thiophene-3-carbonitrile], the IC50 on KRAS-WT is 1520 nM; at KRAS-G12V it was 2950 nM; on KRAS-G13D it was 1200 nM; in assay [1] it was 2220 nM; on KRAS-G12D it was 1310 nM.
